Laboratory results taken from patent publication US20160052918A1, “SMALL COMPOUNDS TARGETING TACC3” (JAPANESE FOUNDATION FOR CANCER RESEARCH, priority 2012, published 2016).
Values after ≈ are worked out from the molar mass of the structure shown. One block for each molecule: values may come before it.

Columns and labels:
[1] = Solubility remarks of Table 2; assay type: physicochemical; conditions: Table 2 remark
[2] = test system: SKOV-3 cells expressing EGFP-α-tubulin; assay: Mitotic arrest of synchronized EGFP-α-tubulin-expressing SKOV-3 cells, time-lapse single-cell analysis; assay type: cell-based; conditions: for EC50: Homo sapiens, SK-OV-3, 72 h, mitotic arrest, EC50=50% arrest rate, double thymidine block, time-lapse 3 days, at least 50 cells, read-out: SKOV3 EC50; for Remarks: start of mitosis: At 66.7 μg/ml; for inhibitory effects on cell growth: summary of Table 2 (SKOV-3 mitotic arrest and lymphoma cell death); for Remarks: cytotoxic: Table 2 remark
Procedure: The EGFP-α-tubulin-expressing cells used in the assay will be described. In order to observe mitosis under a fluorescence microscope, cells expressing EGFP-α-tubulin (fusion protein of a fluorescent protein, EGFP, and α-tubulin) were prepared. A system observable under a fluorescence microscope without cell fixation was prepared.
Ovary cancer cells SKOV-3 were cultured in an RPMI1640 medium supplemented with 5% fetal bovine serum. Stable cells expressing EGFP-α-tubulin were transduced by lentiviral transduction using pLenti4/V5-DEST vectors (Registered Trade Mark) (manufactured by Invitrogen Corp.) and selected by the FACS sorting of infected cells using Zeocin (Registered Trade Mark) and subsequent FACSAria (Registered Trade Mark) (Becton, Dickinson and Company).
The compounds NPD2448, NPD2568, NPD3574, NPD4089, and C7—O-propylated NPD3574 were each added at varying concentrations to the culture medium of SKOV-3 cells expressing EGFP-α-tubulin and analyzed for their effect on cell division.
The SKOV-3 cells expressing EGFP-α-tubulin were synchronized by thymidine block to analyze the effect on cell division of each compound. As shown in the upper part of FIG. 2, each compound was added to the culture medium after the 1st thymidine block. After synchronization by the second thymidine block, images were taken every 2 minutes for 3 days using Leica AF6000 and ×20/0.5 Plan Fluotar objective lens in a phenol red-free RPMI1640 medium supplemented with 5% fetal bovine serum. These time-lapse images were analyzed using ImageJ 1.42a software, and the time of mitotic arrest was determined by visual judgment. The duration of mitosis was manually determined from the image sequences of at least 50 cells.
The mitotic arrest (EC50=50% arrest rate) was tested by the microscopic analysis of individual single cells.
EGFP-α-tubulin-expressing SKOV-3 cells synchronized by double thymidine block in the same way as in Example 2 were treated with each synthesized compound and subjected to time-lapse photography for 3 days. At least 50 cells were observed. The time of arrest of each cell was calculated, and EC50 was determined therefrom.
EGFP-α-tubulin-expressing SKOV-3 cells supplemented with each of SPL-A and SPL-B at varying concentrations were synchronized by double thymidine block in the same way as in Example 2. Analysis based on single cells was conducted by time-lapse photography. The duration of mitosis was measured from the image sequences of at least 50 cells.

mouse lymphoma cell line = assay: Cell death of lymphoma (survival rate, WST-1); assay type: cell-based; conditions: 72 h, IC50=50% survival rate, three days
Procedure: The synthesized compounds were analyzed for their activity against cell death induction using a mouse lymphoma cell line (see Non Patent Literature 12), which was a cell line derived from thymic lymphoma developed in p53KO mouse.
The number of the lymphoma cells was adjusted to 1.2×10^5 cells/ml. The cells were inoculated at a concentration of 50 μl/well to a 96-well culture dish. A medium containing each RT compound as the novel compound of the present invention at twice the concentration of 50 μl was further added thereto (final concentration: 0.021 to 13.3 μg/ml). Three days after cultivation, the survival rate was calculated using WST-1 reagent (manufactured by F. Hoffmann-La Roche, Ltd.).

[3] = target: T1, TACC3-DsRed fusion protein (Homo sapiens, UniProt Q9Y6A5); assay: Chemical array screening for compounds binding to TACC3-DsRed fusion protein; conditions: compound immobilized on chemical array, cell lysate
T1 construct: expressed in transfected cells; host or cells: HEK293T
Procedure: The present inventors screened for compounds targeting at TACC3 using a chemical array (FIG. 1).
According to the protocol of Miyazaki et al. (Non Patent Literature 13), a cell lysate containing a TACC3-DsRed fusion protein was contacted with the chemical array to screen for a compound binding to the TACC3-DsRed fusion protein (FIG. 1, upper diagram).
The cell lysate containing a TACC3-DsRed fusion protein is prepared as follows.
Human TACC3 cDNA was cloned into pDsRed-Express-N1 (Registered Trade Mark) (manufactured by Clontech Laboratories, Inc.), which was then transferred to HEK293T cells. Forty eight hours after transfection, the cells were collected. The obtained cells were sonicated in PBS and centrifuged for removal of insoluble substances to obtain a cell lysate. The cell lysate was confirmed the presence of the TACC3-DsRed fusion protein using anti-TACC3 and anti-DsRed antibodies.
The cell lysate containing a TACC3-DsRed fusion protein was contacted with the chemical array. After washing, the TACC3-DsRed fusion protein bound with a compound immobilized on the chemical array was detected. The detection of the TACC3-DsRed fusion protein with a compound was carried out by the excitation of a chemical array slide with a wavelength of 532 nm and the detection of fluorescence at 575 nm

cultured cells = assay: Visual screening (microscopic observation) for abnormal cell division in cultured cells; assay type: cell-based; conditions: added into culture medium
Text: As a result of screening 6800 compounds, 70 compounds were bound with the TACC3-DsRed fusion protein. These 70 compounds recognized to bind to the TACC3-DsRed fusion protein were each added into a culture medium of cultured cells. Compounds inducing abnormal cell division were selected by microscopic observation. As a result, 4 compounds were screened for as compounds inhibiting cell division (FIG. 1, lower diagram, visual screening).

Compound: COCCN(CCOC)Cc1c(O)ccc2c(C)cc(=O)oc12 [RT-001]
EC50 [2]: > 66.7 µg/mL

Compound: O=c1cc(-c2cc3ccccc3oc2=O)c2ccc(O)c(CN3CCC(N4CCCCC4)CC3)c2o1 [RT-014]
EC50 [2]: 8.76 µg/mL (≈ 18 µM)
inhibitory effects on cell growth [2]: remarkable inhibitory effects on cell growth
IC50 (mouse lymphoma cell line): 8.25 µg/mL (≈ 17 µM)

Compound: O=c1cc(-c2cc3ccccc3oc2=O)c2ccc(O)c(CN3CCOCC3)c2o1 [RT-012]
EC50 [2]: 1.39 µg/mL (≈ 3.43 µM)
inhibitory effects on cell growth [2]: remarkable inhibitory effects on cell growth
IC50 (mouse lymphoma cell line): 2.05 µg/mL (≈ 5.06 µM)

Compound: CN(C)CCNCc1c(O)ccc2c(-c3cc4ccccc4oc3=O)cc(=O)oc12 [RT-005]
Remarks: start of mitosis [2]: μg/ml, mitosis did not
EC50 [2]: > 13.3 µg/mL
Remarks: cytotoxic [2]: Cytotoxic. At 66.7
inhibitory effects on cell growth [2]: remarkable inhibitory effects on cell growth
IC50 (mouse lymphoma cell line): 5.37 µg/mL (≈ 13.2 µM)

Compound: CC1CCN(Cc2c(O)ccc3c(-c4cc5ccccc5oc4=O)cc(=O)oc23)CC1 [RT-010]
EC50 [2]: 0.94 µg/mL (≈ 2.25 µM)
inhibitory effects on cell growth [2]: remarkable inhibitory effects on cell growth
IC50 (mouse lymphoma cell line): 1.64 µg/mL (≈ 3.93 µM)

Compound: CCCCN(C)Cc1c(O)ccc2c(-c3cc4cc(Br)ccc4oc3=O)cc(=O)oc12 [NPD4089]
binding to the TACC3-DsRed fusion protein [3]: bound to the TACC3-DsRed fusion protein
abnormal cell division (cultured cells): induced abnormal cell division

Compound: CC(=O)OCc1c(OC(C)=O)ccc2c(-c3cc4ccccc4oc3=O)cc(=O)oc12 [RT-002]
Remarks: start of mitosis [2]: μg/ml, mitosis did not
EC50 [2]: > 13.3 µg/mL
Remarks: cytotoxic [2]: Cytotoxic. At 66.7
inhibitory effects on cell growth [2]: remarkable inhibitory effects on cell growth
IC50 (mouse lymphoma cell line): 8.3 µg/mL (≈ 19.7 µM)

Compound: CCCN(CCC)Cc1c(O)ccc2c(-c3cc4ccccc4oc3=O)cc(=O)oc12 [NPD2448]
binding to the TACC3-DsRed fusion protein [3]: bound to the TACC3-DsRed fusion protein
abnormal cell division (cultured cells): induced abnormal cell division

Compound: O=c1cc(-c2cc3cc(F)ccc3oc2=O)c2ccc(O)c(CN3CCOCC3)c2o1 [RT-019]
EC50 [2]: 0.16 µg/mL (≈ 0.378 µM)
inhibitory effects on cell growth [2]: remarkable inhibitory effects on cell growth
IC50 (mouse lymphoma cell line): 0.12 µg/mL (≈ 0.283 µM)

Compound: O=c1cc(-c2cc3ccccc3oc2=O)c2ccc(O)cc2o1 [RT-030]
EC50 [2]: > 66.7 µg/mL

Compound: O=c1cc(-c2cc3ccccc3oc2=O)c2ccc(O)c(CN3CCCC3)c2o1 [RT-008]
EC50 [2]: 2.67 µg/mL (≈ 6.86 µM)
inhibitory effects on cell growth [2]: remarkable inhibitory effects on cell growth
IC50 (mouse lymphoma cell line): 9.77 µg/mL (≈ 25.1 µM)

Compound: O=c1cc(-c2cc3ccccc3oc2=O)c2ccc(O)c(CN3CCCCC3)c2o1 [RT-009]
EC50 [2]: 2.68 µg/mL (≈ 6.64 µM)
inhibitory effects on cell growth [2]: remarkable inhibitory effects on cell growth
IC50 (mouse lymphoma cell line): 10.1 µg/mL (≈ 25.1 µM)

Compound: O=c1cc(-c2cc3cc(Cl)ccc3oc2=O)c2ccc(O)cc2o1 [RT-018]
Remarks: solubility [1]: Poorly soluble in DMSO
EC50 [2]: > 66.7 µg/mL

Compound: O=c1cc(-c2cc3cc(Cl)ccc3oc2=O)c2ccc(O)c(CN3CCCCCC3)c2o1 [NPD2568]
binding to the TACC3-DsRed fusion protein [3]: bound to the TACC3-DsRed fusion protein
abnormal cell division (cultured cells): induced abnormal cell division

More lines, main results first:

Remarks: solubility [1]: Insoluble
EC50 [2]: > 66.7 µg/mL
Compound: C=CCOc1ccc2c(-c3cc4ccccc4oc3=O)cc(=O)oc2c1CN(CCOC)CCOC [RT-021]

Remarks: solubility [1]: Insoluble
EC50 [2]: > 66.7 µg/mL
Compound: C#CCOc1ccc2c(-c3cc4ccccc4oc3=O)cc(=O)oc2c1CN(CCOC)CCOC [RT-017]

Remarks: solubility [1]: Insoluble. At 66.7
EC50 [2]: > 66.7 µg/mL
Compound: COCCN(CCOC)Cc1c(OCC=C(C)C)ccc2c(-c3cc4ccccc4oc3=O)cc(=O)oc12 [RT-022]
Remarks: start of mitosis [2]: μg/ml, mitosis did not

EC50 [2]: > 66.7 µg/mL
Compound: CCCOc1ccc2c(-c3cc4ccccc4oc3=O)cc(=O)oc2c1CN(CCOC)CCOC [RT-013]

EC50 [2]: 8.49 µg/mL (≈ 21.6 µM)
Compound: CN(CCO)Cc1c(O)ccc2c(-c3cc4ccccc4oc3=O)cc(=O)oc12 [RT-004]
inhibitory effects on cell growth [2]: remarkable inhibitory effects on cell growth
IC50 (mouse lymphoma cell line): > 13.3 µg/mL

EC50 [2]: 6.56 µg/mL (≈ 12.4 µM)
Compound: COCCN(CCOC)Cc1c(O)ccc2c(-c3cc4cc(Br)ccc4oc3=O)cc(=O)oc12 [RT-028]
inhibitory effects on cell growth [2]: remarkable inhibitory effects on cell growth
IC50 (mouse lymphoma cell line): 3.28 µg/mL (≈ 6.18 µM)

EC50 [2]: 1.15 µg/mL (≈ 2.65 µM)
Compound: CCN(CCN(C)C)Cc1c(O)ccc2c(-c3cc4ccccc4oc3=O)cc(=O)oc12 [RT-006]
inhibitory effects on cell growth [2]: remarkable inhibitory effects on cell growth
IC50 (mouse lymphoma cell line): 3.3 µg/mL (≈ 7.6 µM)

EC50 [2]: > 66.7 µg/mL
Compound: COCCN(CCOC)Cc1c(OCC(O)CO)ccc2c(-c3cc4ccccc4oc3=O)cc(=O)oc12 (stereo not shown) [RT-024]

EC50 [2]: > 66.7 µg/mL
Compound: COCC[N+]([O-])(CCOC)Cc1c(OCC=C(C)C)ccc2c(-c3cc4ccccc4oc3=O)cc(=O)oc12 [RT-025]

EC50 [2]: > 66.7 µg/mL
Compound: COCCN(CCOC)Cc1c(OCC(O)C(C)(C)O)ccc2c(-c3cc4ccccc4oc3=O)cc(=O)oc12 (stereo not shown) [RT-026]

EC50 [2]: 0.85 µg/mL (≈ 2.17 µM)
Compound: CCN(CC)Cc1c(O)ccc2c(-c3cc4ccccc4oc3=O)cc(=O)oc12 [RT-003]
inhibitory effects on cell growth [2]: remarkable inhibitory effects on cell growth
IC50 (mouse lymphoma cell line): 5.08 µg/mL (≈ 13 µM)

EC50 [2]: 0.17 µg/mL (≈ 0.362 µM)
Compound: COCCN(CCOC)Cc1c(O)ccc2c(-c3cc4cc(F)ccc4oc3=O)cc(=O)oc12 [RT-029]
inhibitory effects on cell growth [2]: remarkable inhibitory effects on cell growth
IC50 (mouse lymphoma cell line): 0.21 µg/mL (≈ 0.447 µM)

EC50 [2]: > 66.7 µg/mL
Compound: C=CCOc1ccc2c(-c3cc4ccccc4oc3=O)cc(=O)oc2c1C[N+]([O-])(CCOC)CCOC [RT-023]

binding to the TACC3-DsRed fusion protein [3]: bound to the TACC3-DsRed fusion protein
EC50 [2]: 0.85 µg/mL (≈ 1.88 µM)
Compound: COCCN(CCOC)Cc1c(O)ccc2c(-c3cc4ccccc4oc3=O)cc(=O)oc12 [NPD3574]
inhibitory effects on cell growth [2]: remarkable inhibitory effects on cell growth
IC50 (mouse lymphoma cell line): 1.26 µg/mL (≈ 2.79 µM)
abnormal cell division (cultured cells): induced abnormal cell division
